Data set [1] concerns MAXF 401 mammary cancer xenograft. The data set can be described thus: MAXF 401 patient-derived tumor xenograft efficacy in nude mice. The data set is classed as in vivo, human. As to conditions: BI-1 13.6 mg/kg twice weekly i.p., BIBF1120 50 mg/kg once daily p.o., Bevacizumab 15 mg/kg twice weekly i.p. From the text: (§1) The goal of the present study was to assess the efficacy of BI-1 in combination with Bevacizumab, BIBF1120 or Sunitinib in models of human non small cell lung cancer (LXFE 211, LXFE 1422), colon cancer (CXF 243), mammary cancer (MAXF 401), ovarian cancer (OVXF 1353), pancreatic cancer (PAXF 546) and renal cancer (RXF 1220) in nude mice. All models were patient-derived tumor xenografts (PDX), which were transplanted from patients to nude mice and passaged subcutaneously. These models retain most of the characteristics of the parental patient tumors including histology.
(§2) Tumor fragments were obtained from tumor xenografts in serial passage in nude mice. After removal from donor mice, tumors were cut into fragments (4-5 mm diameter) and placed in PBS until subcutaneous implantation. Recipient mice were anesthetized by inhalation of isoflurane. […] Mice were monitored daily. […]
(§3) The doses of BI-1 and Bevacizumab were calculated to the average body weight of all mice on day 1 (28 g) and administered intraperitoneally twice weekly in a volume of 100 μl per mouse. […]
(§4) Tumor diameters were measured twice weekly with a caliper. The volume of each tumor [in mm^3] was calculated according to the formula “tumor volume=length*diameter^2*0.5.” To monitor side effects of treatment, mice were inspected daily for abnormalities and body weight was determined twice weekly. […]
(In general: A xenograft is tissue or cells of one species grown in another, often human tumour cells in immunodeficient mice.)

In data set [2] the test system is PAXF 546 pancreatic cancer xenograft. The data set can be described thus: PAXF 546 patient-derived tumor xenograft efficacy in nude mice. The class given is in vivo, human. The settings on record: BI-1 13.6 mg/kg twice weekly i.p., BIBF1120 50 mg/kg once daily p.o., Bevacizumab 15 mg/kg twice weekly i.p.
Description: as §1, §2, §3, §4

Data set [3] relates to LXFE 1422 non small cell lung cancer xenograft. The data set can be described thus: LXFE 1422 patient-derived tumor xenograft efficacy in nude mice. The class given is in vivo, human. As to conditions: BI-1 13.6 mg/kg twice weekly i.p., BIBF1120 50 mg/kg once daily p.o., Bevacizumab 15 mg/kg twice weekly i.p.
Description: as §1, §2, §3, §4

Data set [4] deals with LXFE 211 non small cell lung cancer xenograft. The data set can be described thus: LXFE 211 patient-derived tumor xenograft efficacy in nude mice. The class given is in vivo, human. The settings on record: BI-1 13.6 mg/kg twice weekly i.p., BIBF1120 50 mg/kg once daily p.o., Bevacizumab 15 mg/kg twice weekly i.p.
Description: as §1, §2, §3, §4

The nature of data set [5]: Body weight and deaths in PDX tumor-bearing nude mice. The settings on record: mouse, in vivo. As for the experimental part: Mice were 5-7 week-old female Crl:NMRI-Foxn1^nu purchased from Charles River, Sulzfeld, Germany. After arrival, mice were allowed to adjust to ambient conditions for at least 5 days before they were used for the experiments. They were housed in individual ventilated Makrolon® type II long cages under standardized conditions at 25±1° C. temperatures and 55±10% humidity. Standardized diet (Teklad Global 19% Protein Extruded Diet (T.20195.12) from Harlan Laboratories) and sterile filtrated and acidified (pH 2.5) tap water were provided ad libitum. Ear clips were used to identify each mouse. Cage cards showing the study number, the animal identification number, the compound and dose level, the administration route as well as the schedule remained with the animals throughout the study.
Tumor diameters were measured twice weekly with a caliper. The volume of each tumor [in mm^3] was calculated according to the formula “tumor volume=length*diameter^2*0.5.” To monitor side effects of treatment, mice were inspected daily for abnormalities and body weight was determined twice weekly. Animals with tumor sizes exceeding 1.5 cm in diameter or 20% body weight loss were euthanized for ethical reasons.

Data set [6] concerns human non-small cell lung cancer (NCl-H1975) xenografts. Briefly: NCl-H1975 subcutaneous xenograft efficacy in nude mice. The data set is classed as in vivo. The settings on record: NCl-H1975, day 1 to day 14; Bevacizumab 25 mg/kg twice weekly i.p., BIBF 1120 50 mg/kg daily p.o., BI-1 13.6 mg/kg twice weekly i.p. As for the experimental part:
The goal of the present study was to assess the efficacy of BI-1 in combination with Bevacizumab and BIBF 1120 in a model of human non small cell lung cancer (NCl-H1975) in nude mice.
• Model: Subcutaneous xenografts of the human non-small cell lung cancer (NCl-H1975) growing in nude mice
To establish subcutaneous tumors, NCl-H1975 cells were harvested by centrifugation, washed and resuspended in PBS+5% FCS at 5×10^7 cells/ml. 100 μl cell suspension containing 5×10^6 cells was then injected subcutaneously into the right flank of the mice (1 site per mouse). Mice were randomly distributed between the treatment and the vehicle control group (7 days after cell injection) when tumors were well established and had reached volumes of 63 to 104 mm3.
The doses of BI-1 and Bevacizumab were calculated to the average body weight of all mice on day 1 (28 g) and administered intraperitoneally twice weekly in a volume of 100 μl per mouse. BIBF 1120 was dosed according to the body weight (mg/kg) and administered daily perorally.
Tumor diameters were measured three times a week (Monday, Wednesday and Friday) with a caliper. The volume of each tumor [in mm3] was calculated according to the formula “tumor volume=length*diameter2*π/6.” To monitor side effects of treatment, mice were inspected daily for abnormalities and body weight was determined three times a week (Monday, Wednesday and Friday). […]

Data set [7] relates to CXF 243 colon cancer xenograft. Briefly: CXF 243 patient-derived tumor xenograft efficacy in nude mice. The class given is in vivo, human. As to conditions: BI-1 13.6 mg/kg twice weekly i.p., BIBF1120 50 mg/kg once daily p.o., Bevacizumab 15 mg/kg twice weekly i.p.
Description: as §1, §2, §3, §4

Data set [8] has as its system OVXF 1353 ovarian cancer xenograft. The data set can be described thus: OVXF 1353 patient-derived tumor xenograft efficacy in nude mice. The class given is in vivo, human. The settings on record: BI-1 13.6 mg/kg twice weekly i.p., BIBF1120 50 mg/kg once daily p.o., Bevacizumab 15 mg/kg twice weekly i.p.
Description: as §1, §2, §3, §4

For data set [9], the system named is RXF 1220 renal cancer xenograft. Briefly: RXF 1220 patient-derived tumor xenograft efficacy in nude mice. As to conditions: BI-1 13.6 mg/kg twice weekly i.p., Sunitinib 40 mg/kg once daily, Bevacizumab 15 mg/kg twice weekly i.p. The data set is classed as in vivo, human.
Description: as §1
Sunitinib (Sutent®, Pfizer) tablets were ground with mortar and pestle and 108.48 mg powder (corresponding to 32 mg API; correction factor: 3.39) were dissolved in PBS (pH 5).
Tumor fragments were obtained from tumor xenografts in serial passage in nude mice. […] Mice were monitored daily. […]
as §3, §4

The results in this text go back to patent US20140093499A1, “PHARMACEUTICAL COMBINATIONS COMPRISING DUAL ANGIOPOIETIN-2 / DLL4 BINDERS AND ANTI-VEGF AGENTS” (BOEHRINGER INGELHEIM INTERNATIONAL GMBH, priority 2012, published 2014).

Regarding Bevacizumab, the TGI (commonly the reduction of tumour growth relative to the control group) is given as 68% in [1], 59% in data set [2], 63% in data set [3] and 37% in [4]. In addition, the “maximum median body weight loss” value in data set [5] is given as 9.1%. Besides, the “median TGI (tumor growth inhibition)” value in data set [6] came out at 82%.

As to `COC(=O)c1ccc2c(c1)NC(=O)/C2=C(\Nc1ccc(N(C)C(=O)CN2CCN(C)CC2)cc1)c1ccccc1` [BIBF 1120], the TGI in [1] came out at 63%; in [2] it was 69%; in data set [3], 57%; in data set [7] it was 65%; in [4], 40%; in data set [8] it was 78%. In data set [5], the “maximum median body weight loss” value is 5.9%. The “median TGI (tumor growth inhibition)” value in data set [6] turned out to be 75%.

Consider `CCN(CC)CCNC(=O)c1c(C)[nH]c(/C=C2\C(=O)Nc3ccc(F)cc32)c1C` [Sunitinib], for which, in [9], the TGI stood at 62%.
